One experiment concerns methylphenidate. Put plainly: Methylphenidate antagonism, mice i.p. It is filed as in vivo. The following applies: Mus musculus, ip. The protocol:
Methylphenidate antagonism (ED50 μmol/kg i.p.)
Perspex observation cages without bottom and lid, consisting of 5 sections each measuring 12×25×30 cm.
Two hours after injection of test substance, methylphenidate, 60 mg/kg, is injected s.c. After administration of methylphenidate the mice are placed in the observation cages, 2 in each cage, where they remain for exactly 1 hour. The cages are placed on corrugated paper, the corrugations facing upwards. It is examined whether the mice have been biting the corrugated paper or not.
The result is stated in fractions: 0/3, 1/3, 2/3 and 3/3 where 0, 1, 2 and 3 are the number of pairs which have not been biting on receipt of the dose in question.

Experiment [1] can be described thus: Catalepsy wire mesh, rat, max. It is filed as in vivo, rats. The following applies: po, read-out: Catalep. ED50 (po). The protocol: Catalepsy wire mesh, rat, max. (ED50 μmol/kg p.o.)
A vertical wire netting (50 cm×49 cm). The meshes (openings) of the netting are square (1 cm×1 cm). The wire diameter is 2 mm.
The animals are labeled and used in groups of five. The test substance is administered orally (p.o.) at 4 dose levels selected from a fixed dose scale.
The animals are placed in the middle of the vertical wire netting 60, 120, 180, 240, 300 and 360 minutes after administration of the test compound. The animals are considered cataleptic when they remain immobile during a period of 15 seconds. This cataleptic reaction is designated +.
If the rats are "atonic" and passively slide down the wire mesh they are considered not cataleptic. If the animals climb up and down the wire mesh they are nor cataleptic. In both situations the designation - is used.

In another experiment the test system is 5-HT, rat fundus strip. The experiment in a line: 5-HT antagonism, rat fundus strip. The following applies: read-out: 5HT rat-fundus-strip IC50. On the procedure:
5-HT antagonism, rat fundus strip
5-hydroxytryptamine (5-HT).
Rats are killed by a blow on the head and exsanguinated. The stomach fundus is removed and carefully cleaned with Krebs solution at 30° C. The fundus is then stretched over a rounded end of a plastic rod about the thickness of a pencil, whereby the longitudinal direction of the muscle fibers is visible. The fundus is halved by carefully cutting in the central line and in the direction of these fibres. Along this incision two strips with a length of 15-25 mm and with width 1.5-2.5 mm are cut, one from each half of the fundus. The mucosa is then carefully removed. A thread is attached to each end of a strip. One thread is fixed to a pin in the bottom of the organ bath and the other thread is fixed to an isotonic transducer. The strip is kept under a tone of 1.5 to 2.0 g. […] Concentration response curves to 5-HT are obtained by adding 5-HT to the bath in increasing concentrations (0.1 ml of 10^-9 M resulting in 1.0×10^-11 M in the bath, 0.2 ml of 10^-9 M resulting in 3.0×10^-11 M, 0.1 ml of 10^-8 M resulting in about 1×10^-10 M, 0.2 ml of 10^-8 M resulting in about 3×10^-10 M--0.2 ml of 10^-4 resulting in about 3×10^-6 M in the bath). Each concentration of 5-HT is allowed to exert its maximal effect (1-10 min) before the next is added. When the maximal response is reached the tissue is carefully washed. The test substance is added to the bath for 10 min. before examining its effect on a new cumulative 5-HT concentration response curve. From the control concentration effect curve the Km for 5-HT is calculated.
The results are recorded as mean percentage inhibition.
Substrate concentration for 5-HT: 1.0×10^-9 M to 1.0×10^-8 M.
Michaelis-Menten constant for 5-HT is estimated each time.

[2] abbreviates: read-out: MePh Antag. ED50 (ip).
[3] abbreviates: Table 1, mice, i.p., 2 h before methylphenidate 60 mg/kg s.c., read-out: MePh Antag. ED50 (ip).
[4] abbreviates: Table 1, rat, p.o., max. effect within 6 h.
[5] abbreviates: 10 min, Table 1, rat fundus strip in vitro, 10 min pre-exposure.
The mark [6] stands for this setting: Table 2, hydroxyindane intermediates, mice, i.p., read-out: MePh Antag. ED50.

Structures can show the parent of a compound that is named as a salt. Where two headings read alike, the source gives them in different places.

As for `OCCN1CCN(CCCN2c3ccccc3Sc3ccc(C(F)(F)F)cc32)CC1` [Fluphenazine, reference compound], the ED50 in the experiment on methylphenidate (setting [2]) worked out at 0.07 µmol/kg; in experiment [1] (Rattus norvegicus, 6 h) it was 0.55 µmol/kg.
`COc1ccc2c(c1)C(C1CCN(CCO)CC1)=CC2c1ccc(F)cc1` (stereo not drawn) [Lu 20-033, 3-(4'-Fluorophenyl)-1-(1-hydroxyethyl-4-piperidyl)-6-methoxy-1-indene, hydrobromide]: the ED50 with methylphenidate (setting [3]) was 18.3 µmol/kg; in experiment [1] (setting [4]) it was 6.2 µmol/kg. Also, in the experiment on 5-HT, rat fundus strip (setting [5]), the IC50 was found to be 160 nM.
The matching figures for `OCCN1CC=C(C2=CC(c3ccc(F)cc3)c3ccc(F)cc32)CC1` (stereo not drawn) [Lu 19-157, 6-Fluoro-3-(4'-fluorophenyl)-1-(1-hydroxyethyl-1,2,3,6-tetrahydropyrid-4-yl)-1-indene, hydrobromide]: 15.8 µmol/kg, 55.3 µmol/kg and 330 nM.
As for `OC1(C2CCNCC2)CC(c2ccc(F)cc2)c2ccc(F)cc21` (stereo not drawn) [Lu 19-139, 6-Fluoro-3-(4'-fluorophenyl)-1-hydroxy-1-(4-piperidyl)indane], the ED50 with methylphenidate (setting [6]) came out at 15.6 µmol/kg.
In the case of `Cc1ccc2c(c1)C(O)(C1=CCN(CCO)CC1)CC2c1ccc(F)cc1` (stereo not drawn) [Lu 19-154, 3-(4'-Fluorophenyl)-1-hydroxy-1-(1-hydroxyethyl-1,2,3,6-tetrahydropyrid-4-yl)-6-methylindane], in the experiment on methylphenidate (setting [6]), the ED50 is 6.2 µmol/kg. Further, in the experiment on 5-HT, rat fundus strip (Table 2, hydroxyindane intermediates, rat fundus strip in vitro), the IC50 is 5.4 nM.
For `Cc1ccc2c(c1)C(C1CCN(CCN3CCOC3=O)CC1)=CC2c1ccc(F)cc1` (stereo not drawn) [Lu 21-002, 3-(4'-Fluorophenyl)-6-methyl-1-(1-(2-oxazolidinon-3-ylethyl)-4-piperidyl)-1-indene, trifluoroacetate], the ED50 with methylphenidate (setting [3]) was determined as 1.7 µmol/kg.
As to `Cc1ccc2c(c1)C(C1CCN(CCO)CC1)C=C2c1ccc(F)cc1` (stereo not drawn) [Lu 20-039, 3-(4'-Fluorophenyl)-1-(1-hydroxyethyl-4-piperidyl)-6-methyl-2-indene, hydrobromide], the ED50 in the experiment on methylphenidate (setting [3]) was 93 µmol/kg; in experiment [1] (setting [4]) it was greater than 93 µmol/kg. For the same molecule, the IC50 in the experiment with 5-HT, rat fundus strip (setting [5]) came to 1900 nM.
The matching figures for `Cc1ccc2c(c1)C(C1=CCN(CCO)CC1)C=C2c1ccc(F)cc1` (stereo not drawn) [Lu 20-038, 3-(4'-Fluorophenyl)-1-(1-hydroxyethyl-1,2,3,6-tetrahydropyrid-4-yl)-6-methyl-2-indene, hydrobromide]: 0.89 µmol/kg, 3.8 µmol/kg and 28 nM.
Regarding `CN1CCC(=C2C=C(c3ccc(F)cc3)c3ccc(F)cc32)CC1` [Lu 19-151, 6-Fluoro-3-(4'-fluorophenyl)-1-(1-methyl-4-piperidylidenyl)-2-indene, hydrochloride], the ED50 in the experiment with methylphenidate (setting [3]) came out at 32.5 µmol/kg; in experiment [1] (setting [4]) it was 32.9 µmol/kg. In addition, the IC50 in the experiment on 5-HT, rat fundus strip (setting [5]) stood at 7500 nM.
As to `CN(C)CCCN1c2ccccc2Sc2ccc(Cl)cc21` [Chlorpromazine, reference compound], the ED50 in experiment [1] (Rattus norvegicus, 6 h) is 70 µmol/kg. In addition, the IC50 with 5-HT, rat fundus strip (Rattus norvegicus, 10 min) is greater than 5000 nM.
Consider `O=C1NCCN1CCN1CCC(C2C=C(c3ccc(F)cc3)c3ccccc32)CC1` (stereo not drawn) [Lu 20-082, 3-(4'-Fluorophenyl)-1-(1-(2-imidazolidinon-1-ylethyl)-4-piperidyl)-2-indene], for which the ED50 in the experiment with methylphenidate (setting [3]) was found to be 70.9 µmol/kg. Also, in the experiment on 5-HT, rat fundus strip (setting [5]), the IC50 came out at 1500 nM.
On to `CN1CCC(C2C=C(c3ccc(F)cc3)c3ccc(F)cc32)CC1` (stereo not drawn) [Lu 19-004, 6-Fluoro-3-(4'-fluorophenyl)-1-(1-methyl-4-piperidyl)-2-indene], for which the values for the ED50 (with methylphenidate (setting [3]); in experiment [1] (setting [4])) were 12.2 µmol/kg and 64.2 µmol/kg, respectively. For the same molecule, the IC50 in the experiment on 5-HT, rat fundus strip (setting [5]) was 1100 nM.
Take `O=C(CCCN1CCC(O)(c2ccc(Cl)cc2)CC1)c1ccc(F)cc1` [Haloperidol, reference compound]: the ED50 with methylphenidate (setting [2]) is 0.11 µmol/kg; in experiment [1] (Rattus norvegicus, 6 h), 1 µmol/kg.
For `CC(C)c1ccc2c(c1)C(C1CCN(CCO)CC1)=CC2c1ccc(F)cc1` (stereo not drawn) [Lu 20-109, 3-(4'-Fluorophenyl)-1-(1-hydroxyethyl-4-piperidyl)-6-(2-propyl)-1-indene, hydrochloride], the ED50 with methylphenidate (setting [3]) came to 1.1 µmol/kg.
On the same count and under the same terms, to `O=C1NCCN1CCN1CCC(C2=CC(c3ccc(F)cc3)c3ccc(F)cc32)CC1` (stereo not drawn) [Lu 20-087, 6-Fluoro-3-(4'-fluorophenyl)-1-(1-(2-imidazolidinon-1-ylethyl)-4-piperidyl)-1-indene, oxalate] belongs 10.8 µmol/kg.
Take `COc1ccc2c(c1)C(C1=CCN(CCO)CC1)=CC2c1ccc(F)cc1` (stereo not drawn) [Lu 20-021, 3-(4'-Fluorophenyl)-1-(1-hydroxyethyl-1,2,3,6-tetrahydropyrid-4-yl)-6-methoxy-1-indene, hydrobromide]: the ED50 with methylphenidate (setting [3]) was determined as 11.6 µmol/kg. Further, the IC50 in the experiment on 5-HT, rat fundus strip (setting [5]) amounted to 500 nM.
The corresponding values for `O=C1NCCN1CCN1CCC(C2=CC(c3ccc(F)cc3)c3ccccc32)CC1` (stereo not drawn) [Lu 20-078, 3-(4'-Fluorophenyl)-1-(1-(2-imidazolidinon-1-ylethyl)-4-piperidyl)-1-indene, oxalate] are 16.5 µmol/kg and 120 nM.
For the molecule `Cc1ccc2c(c1)C(=C1CCN(CCO)CC1)C=C2c1ccc(F)cc1` [Lu 20-044, 3-(4'-Fluorophenyl)-1-(1-hydroxyethyl-4-piperidylidenyl)-6-methyl-2-indene,hydrobromide], the ED50 with methylphenidate (setting [3]) is 5.1 µmol/kg. In addition, the IC50 with 5-HT, rat fundus strip (setting [5]) was determined as 280 nM.
The corresponding values for `CC(C)c1ccc2c(c1)C(C1=CCN(C)CC1)=CC2c1ccc(F)cc1` (stereo not drawn) [Lu 20-099, 3-(4'-Fluorophenyl)-1-(1-methyl-1,2,3,6-tetrahydropyrid-4-yl)-6-(2-propyl)-1-indene, hydrobromide] are 5.6 µmol/kg and 5000 nM.
For `CN1CCC(C2=CC(c3ccc(F)cc3)c3ccc(F)cc32)CC1` (stereo not drawn) [Lu 20-028, 6-Fluoro-3-(4'-fluorophenyl)-1-(1-methyl-4-piperidyl)-1-indene, hydrobromide], the ED50 turned out to be 0.78 µmol/kg with methylphenidate (setting [3]) and 6.2 µmol/kg in experiment [1] (setting [4]). In addition, in the experiment on 5-HT, rat fundus strip (setting [5]), the IC50 was determined as 200 nM.
Consider `Cc1ccc2c(c1)C(O)(C1=CCN(C)CC1)CC2c1ccc(F)cc1` (stereo not drawn) [Lu 19-131, 3-(4'-Fluorophenyl)-1-hydroxy-6-methyl-1-(1-methyl-1,2,3,6-tetrahydropyrid-4-yl)indane], for which the ED50 in the experiment with methylphenidate (setting [6]) was 14.8 µmol/kg.
Consider `Cc1ccc2c(c1)C(C1CCN(C)CC1)=CC2c1ccc(F)cc1` (stereo not drawn) [Lu 20-048, 3-(4'-Fluorophenyl)-6-methyl-1-(1-methyl-4-piperidyl)-1-indene, hydrobromide], for which the ED50 in the experiment with methylphenidate (setting [3]) turned out to be 0.53 µmol/kg; in experiment [1] (setting [4]), 3.4 µmol/kg. The IC50 with 5-HT, rat fundus strip (setting [5]) was found to be 42 nM.
As to `CN1CC=C(C2=CC(c3ccc(F)cc3)c3ccc(Cl)cc32)CC1` (stereo not drawn) [Lu 20-079, 6-Chloro-3-(4'-fluorophenyl)-1-(1-methyl-1,2,3,6-tetrahydropyrid-4-yl)-1-indene, hydrobromide], the ED50 with methylphenidate (setting [3]) came to 3 µmol/kg.
As for `Cc1ccc2c(c1)C(C1CCN(CCN3CCNC3=O)CC1)=CC2c1ccc(F)cc1` (stereo not drawn) [Lu 20-064, 3-(4'-Fluorophenyl)-1-(1-(2-imidazolidinon-1-ylethyl)-4-piperidyl)-6-methyl-1-indene, oxalate], the ED50 worked out at 0.86 µmol/kg with methylphenidate (setting [3]) and 6.7 µmol/kg in experiment [1] (setting [4]). Also, in the experiment with 5-HT, rat fundus strip (setting [5]), the IC50 is 22 nM.
The matching figures for `CN1CC=C(C2=CC(c3ccc(F)cc3)c3ccc(F)cc32)CC1` (stereo not drawn) [Lu 20-025, 6-Fluoro-3-(4'-fluorophenyl)-1-(1-methyl-1,2,3,6-tetrahydropyrid-4-yl)-1-indene, hydrobromide]: 7.6 µmol/kg, 5.3 µmol/kg and 240 nM.

One may read the ED50 as the dose at which the effect has come halfway, by size or by number of responders. What is called IC50 is the concentration needed to halve the response being measured.

The values are drawn from US4525360A, “Anti-psychotic phenylindene derivatives and acid addition salts thereof” (Kefalas A/S, priority 1982, dated 1985).
